According to the supplement of paper PMC10307832:

How the values were obtained:
Assay in all cases: relative viability (nuclei count vs DMSO), 5 days (fraction); higher = more cells survive
[1] = compound: CCN1CCC(CC1)N2C=C(N=N2)CNC3=CC4=C(C(=CN=C4C(=C3)Cl)C#N)NC5=CC(=C(C=C5)F)Cl [KIN001-266] + O=C(CCCCCCC(=O)Nc1ccccc1)NO [Vorinostat] (partner 1 µM)
Procedure, shortened: (§1)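 After 5 days of treatment, lung cancer cells in 1536-well plates were fixed and stained in a single step (final 0.05% Triton X-100, 1% formaldehyde, 1 ug/ml Hoechst) and their nuclei counted on 4× images. Treatment had been applied by pin tool the day after seeding as one drug alone or as a fixed anchor-drug dose with five library-drug doses (not always all listed) in √10 steps. Relative viability is the nuclei count of treated wells divided by that of vehicle wells, and values are medians of duplicate plates.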

[2] = compound: CCN1CCC(CC1)N2C=C(N=N2)CNC3=CC4=C(C(=CN=C4C(=C3)Cl)C#N)NC5=CC(=C(C=C5)F)Cl [KIN001-266] + C[C@@H](Oc1cc(-c2cnn(C3CCNCC3)c2)cnc1N)c1c(Cl)ccc(F)c1Cl [Crizotinib] (partner 1 µM)
Procedure, shortened: as §1

[3] = compound: CCN1CCC(CC1)N2C=C(N=N2)CNC3=CC4=C(C(=CN=C4C(=C3)Cl)C#N)NC5=CC(=C(C=C5)F)Cl [KIN001-266] + Cc1nc(Nc2ncc(C(=O)Nc3c(C)cccc3Cl)s2)cc(N2CCN(CCO)CC2)n1 [Dasatinib] (partner 0.075 µM)
Procedure, shortened: as §1

[4] = compound: CCN1CCC(CC1)N2C=C(N=N2)CNC3=CC4=C(C(=CN=C4C(=C3)Cl)C#N)NC5=CC(=C(C=C5)F)Cl [KIN001-266] + CS(=O)(=O)N1CCN(Cc2cc3nc(-c4cccc5[nH]ncc45)nc(N4CCOCC4)c3s2)CC1 [Pictilisib] (partner 1 µM)
Procedure, shortened: as §1

Row | Cell Line | relative viability ([1]; first compound 0.08 µM) | relative viability ([1]; first compound 0.253 µM) | relative viability ([1]; first compound 0.8 µM) | relative viability ([1]; first compound 2.53 µM) | relative viability ([1]; first compound 8 µM) | relative viability ([2]; first compound 0.08 µM) | relative viability ([2]; first compound 0.253 µM) | relative viability ([2]; first compound 0.8 µM) | relative viability ([2]; first compound 2.53 µM) | relative viability ([2]; first compound 8 µM) | relative viability ([3]; first compound 0.08 µM) | relative viability ([3]; first compound 0.253 µM) | relative viability ([3]; first compound 0.8 µM) | relative viability ([3]; first compound 2.53 µM) | relative viability ([3]; first compound 8 µM) | relative viability ([4]; first compound 0.08 µM) | relative viability ([4]; first compound 0.253 µM) | relative viability ([4]; first compound 0.8 µM) | relative viability ([4]; first compound 2.53 µM) | relative viability ([4]; first compound 8 µM)
1 | NCI-H2347 | 0.678 | 0.647 | 0.62 | 0.594 | 0.418 | 0.675 | 0.802 | 0.673 | 0.682 | 0.625 | 0.34 | 0.294 | 0.258 | 0.329 | 0.241 | 0.663 | 0.698 | 0.476 | 0.422 | 0.485
2 | NCI-H2405 | 1.08 | 1.03 | 1.02 | 1.04 | 0.809 | 0.854 | 0.89 | 0.811 | 0.852 | 0.565 | 0.207 | 0.241 | 0.233 | 0.223 | 0.202 | 0.384 | 0.412 | 0.449 | 0.288 | 0.347
3 | NCI-H3122 | 0.966 | 1.13 | 0.992 | 1.06 | 1.02 | 0.329 | 0.239 | 0.267 | 0.256 | 0.221 | 0.78 | 0.752 | 0.856 | 0.891 | 0.763 | 0.573 | 0.615 | 0.494 | 0.559 | 0.544
4 | PC-3 [JPC-3] | 0.856 | 0.887 | 0.801 | 0.987 | 0.847 | 0.986 | 0.911 | 0.872 | 0.952 | 0.896 | 0.982 | 1.01 | 0.912 | 1.01 | 0.847 | 0.797 | 0.8 | 0.575 | 0.693 | 0.527
5 | PC-14 | 0.627 | 0.803 | 0.158 | 0.577 | 0.0881 | 0.92 | 0.972 | 0.817 | 0.852 | 0.571 | 0.297 | 0.277 | – | 0.203 | 0.0481 | 0.702 | 0.571 | 0.772 | 0.565 | 0.0965
6 | RERF-LC-KJ | 0.765 | 0.779 | 0.65 | 0.682 | 0.555 | 0.722 | 0.899 | 0.803 | 0.777 | 0.813 | 0.951 | 0.922 | 0.757 | 0.725 | 0.417 | 0.537 | 0.554 | 0.516 | 0.635 | 0.315
7 | SK-LU-1 | 0.833 | 0.799 | 0.783 | 0.776 | 0.518 | 1.13 | 0.997 | 0.963 | 0.763 | 0.557 | 0.192 | 0.19 | 0.172 | 0.197 | 0.195 | 0.562 | 0.546 | 0.637 | 0.467 | 0.434
8 | SK-MES-1 | 1.1 | 1.19 | 1.03 | 1.03 | 0.713 | 1.02 | 1.09 | 0.948 | 0.923 | 0.888 | 0.418 | 0.356 | 0.357 | 0.337 | 0.247 | 0.304 | 0.351 | 0.37 | 0.408 | 0.316
9 | SW 1573 | 0.796 | 0.625 | 1.06 | 0.835 | 0.654 | 0.695 | 0.846 | 0.81 | 0.663 | 0.68 | 0.515 | 0.735 | 0.483 | 0.503 | 0.437 | 0.523 | 0.448 | 0.502 | 0.474 | 0.39
10 | UMC-11 | 0.334 | 0.421 | 0.431 | 0.411 | 0.44 | 0.577 | 0.538 | 0.504 | 0.637 | 0.335 | 0.438 | 0.452 | 0.481 | 0.421 | 0.382 | 0.808 | 0.841 | 0.827 | 0.5 | 0.677
